In ChEMBL document CHEMBL1133195, “Structure-activity relationships study at the 3'-N position of paclitaxel. Part 2: synthesis and biological evaluation of 3'-N-thiourea- and 3'-N-thiocarbamate-bearing paclitaxel analogues” (Bioorg Med Chem Lett, 2000):

Key:
[1] = Ratio relative to paclitaxel (EC0.01) was evaluated in a tubulin polymerization assay; format: functional
HCT-116 = assay: In vitro cytotoxicity against human colon cancer cell lines (HCT116); format: functional, cell-based
[2] = Cytotoxicity ratio was determined by IC50 to that of IC50 of paclitaxel; format: functional
[3] = Ratio fo the (IC50-R) compound relative to (IC50-S) paclitaxel sensitive HCT116 human colon cancer cell line; format: functional, HCT-116
Mus musculus [4] = assay: In vivo anticancer activity against murine M 109 lung carcinoma after intraperitoneal administration at a 32 mg/kg/inj concentration; format: functional
Mus musculus [5] = assay: In vivo anticancer activity against murine M 109 lung carcinoma after intraperitoneal administration at a 50 mg/kg/inj concentration; format: functional
Mus musculus [6] = assay: In vivo anticancer activity against murine M 109 lung carcinoma after intraperitoneal administration at a 40 mg/kg/inj concentration; format: functional
Mus musculus [7] = assay: In vivo anticancer activity against murine M 109 lung carcinoma after intraperitoneal administration at a 60 mg/kg/inj concentration; Range 145-218; format: functional
Mus musculus [8] = assay: In vivo anticancer activity against murine M 109 lung carcinoma after intraperitoneal administration at a 1.25 mg/kg/inj concentration; format: functional

SMILES	Ratio [1]	IC50 (HCT-116) [nM]	Ratio [2]	Ratio [3]	T/C (Mus musculus [4])	T/C (Mus musculus [5])	T/C (Mus musculus [6])	T/C (Mus musculus [7])	T/C (Mus musculus [8])
CCCC/N=C(\S)N[C@@H](c1ccco1)[C@@H](O)C(=O)O[C@H]1CC2(O)[C@@H](OC(=O)c3ccccc3)[C@H]3[C@](C)(C(=O)[C@H](OC(C)=O)C(=C1C)C2(C)C)[C@@H](O)CC1OC[C@]13OC(C)=O (stereo partly specified)	1	10.5	4.6	252					
CC(=O)O[C@H]1C(=O)[C@]2(C)[C@@H](O)CC3OC[C@@]3(OC(C)=O)[C@H]2[C@H](OC(=O)c2ccccc2)C2(O)C[C@H](OC(=O)[C@H](O)[C@@H](NC(=O)OC(C)(C)C)c3ccccc3)C(C)=C1C2(C)C (stereo partly specified)	0.66	2.4	0.6	12	177				
CC(=O)O[C@H]1C(=O)[C@]2(C)[C@@H](O)CC3OC[C@@]3(OC(C)=O)[C@H]2[C@H](OC(=O)c2ccccc2)C2(O)C[C@H](OC(=O)[C@H](O)[C@@H](/N=C(\S)NCc3ccccc3)c3ccccc3)C(C)=C1C2(C)C (stereo partly specified)	12	> 87	>40						
CC(=O)O[C@H]1C(=O)[C@]2(C)[C@@H](O)CC3OC[C@@]3(OC(C)=O)[C@H]2[C@H](OC(=O)c2ccccc2)C2(O)C[C@H](OC(=O)[C@H](O)[C@@H](NC(=O)SCC(C)C)c3ccco3)C(C)=C1C2(C)C (stereo partly specified)	0.2	0.7	0.28	7.7		145			
CCCCSC(=O)N[C@@H](c1ccccc1)[C@@H](O)C(=O)O[C@H]1CC2(O)[C@@H](OC(=O)c3ccccc3)[C@H]3[C@](C)(C(=O)[C@H](OC(C)=O)C(=C1C)C2(C)C)[C@@H](O)CC1OC[C@]13OC(C)=O (stereo partly specified)	0.6	5.8	0.88	29					
CC(=O)O[C@H]1C(=O)[C@]2(C)[C@@H](O)CC3OC[C@@]3(OC(C)=O)[C@H]2[C@H](OC(=O)c2ccccc2)C2(O)C[C@H](OC(=O)[C@H](O)[C@@H](/N=C(\S)NC(C)(C)C)c3ccccc3)C(C)=C1C2(C)C (stereo partly specified)	19	96.7	~50	31					
CCCCSC(=O)N[C@@H](c1ccco1)[C@@H](O)C(=O)O[C@H]1CC2(O)[C@@H](OC(=O)c3ccccc3)[C@H]3[C@](C)(C(=O)[C@H](OC(C)=O)C(=C1C)C2(C)C)[C@@H](O)CC1OC[C@]13OC(C)=O (stereo partly specified)	0.2	0.3	0.17	21.3			139		
CC(=O)O[C@@]12COC1C[C@H](O)[C@@]1(C)C(=O)[C@H](O)C3=C(C)[C@@H](OC(=O)C(O)[C@@H](NC(=O)NC(C)(C)C)c4ccccc4)CC(O)([C@@H](OC(=O)c4ccccc4)[C@@H]12)C3(C)C (stereo partly specified)	0.72	4	1	46.8					
CCCC/N=C(\S)N[C@@H](c1ccccc1)[C@@H](O)C(=O)O[C@H]1CC2(O)[C@@H](OC(=O)c3ccccc3)[C@H]3[C@](C)(C(=O)[C@H](OC(C)=O)C(=C1C)C2(C)C)[C@@H](O)CC1OC[C@]13OC(C)=O (stereo partly specified)	18	50.2	21.8	64					
CC(=O)O[C@H]1C(=O)[C@]2(C)[C@@H](O)CC3OC[C@@]3(OC(C)=O)[C@H]2[C@H](OC(=O)c2ccccc2)C2(O)C[C@H](OC(=O)[C@H](O)[C@@H](NC(=O)SC(C)C)c3ccco3)C(C)=C1C2(C)C (stereo partly specified)	0.2	32.5	14.7	1.2					
CC(=O)O[C@H]1C(=O)[C@@]2(C)[C@H]([C@H](OC(=O)c3ccccc3)[C@]3(O)C[C@H](OC(=O)[C@H](O)[C@@H](NC(=O)c4ccccc4)c4ccccc4)C(C)=C1C3(C)C)[C@]1(OC(C)=O)CO[C@@H]1C[C@@H]2O [PACLITAXEL]								145	
CC(=O)O[C@H]1C(=O)[C@]2(C)[C@@H](O)CC3OC[C@@]3(OC(C)=O)[C@H]2[C@H](OC(=O)c2ccccc2)C2(O)C[C@H](OC(=O)[C@H](O)[C@@H](/N=C(\S)NC(C)(C)C)c3ccco3)C(C)=C1C2(C)C (stereo partly specified)	1	11.3	4.9	40					
CC(=O)O[C@H]1C(=O)[C@]2(C)[C@@H](O)CC3OC[C@@]3(OC(C)=O)[C@H]2[C@H](OC(=O)c2ccccc2)C2(O)C[C@H](OC(=O)[C@H](O)[C@@H](NC(=O)SC(C)(C)C)c3ccco3)C(C)=C1C2(C)C (stereo partly specified)	0.1	0.9	0.3	2.2					134
CC(=O)O[C@H]1C(=O)[C@]2(C)[C@@H](O)CC3OC[C@@]3(OC(C)=O)[C@H]2[C@H](OC(=O)c2ccccc2)C2(O)C[C@H](OC(=O)[C@H](O)[C@@H](NC(=O)SC(C)(C)C)c3ccccc3)C(C)=C1C2(C)C (stereo partly specified)	0.3	0.9	0.3	4.7					
